For assay [1], the target named is T1, YAP association with TEAD1-4, SMAD7, p73, FOS, TBXS (Homo sapiens, UniProt P46937).
T1 construct: expressed in transfected cells
Nature of the assay: HA-YAP1 immunoprecipitation from LN229 cells, immunoblot for TEAD1-4 and other transcription factors. Format: cell-based. The conditions noted are these: LN229 cells expressing HA-YAP, 18 h. The method, then:
(§1) Levels of total YAP were determined via ELISA. […] Immunoprecipitates were immunoblotted for the indicated proteins. […] Cells were treated with the indicated concentrations of inhibitor for 18 h and mRNA extracted for real time RT-PCR analyses. Measurements were performed in quadruplicate and means and+S.D. are shown. […] Cells were treated with (+) or without (−) NSC682769 (100 nM, 18 h) and harvested and separated into cytoplasmic and nuclear cellular fractions. Cytoplasmic versus nuclear material was subsequently immunoblotted for the indicated proteins. […] Values in top right corner of panels correspond to the percentage of nuclear localized YAP. […]
(§2) Protein and mRNA analyses, immunoprecipitation, in vitro bead-coupled inhibitor binding assays and HPLC analyses. […] Antigen-antibody complexes were detected using appropriate horseradish peroxidase-conjugated secondary antibodies (GE Healthcare) and enhanced chemiluminescence (Amersham ECL Prime). […] For quantitative RT-PCR, extraction of RNA was performed using Trizol® (Life Technologies). Total RNA was then quantified and integrity assessed using an Agilent 2100 Bioanalyzer (Agilent Technology). […] SYBR® Green quantitative PCR (Millipore Sigma) was performed in triplicate in 96-well optical plates on an ABI Prism 7000 Sequence Detection System (Life Technologies) according to the manufacturer's instructions. […]
On the technique in general: Immunoblotting shows a protein as a band on a membrane.

For assay [2], the system named is YAP. Nature of the assay: Western blot of YAP and TEAD levels in GBM lines. Format: cell-based, human. The settings on record: LN229, T98G, GBM39; 18 h, increasing concentrations. The protocol:
as §1, §2

Assay [3] concerns the target T2, YAP (Homo sapiens, UniProt P46937).
T2 construct: endogenous in cells; host or cells: LN229, T98G, GBM39
As to the kind of experiment: Western blot of YAP and TEAD levels in GBM lines. Format: cell-based. The settings on record: LN229, T98G, GBM39; 18 h, increasing concentrations. The protocol:
as §1, §2

The structures appear in SMILES notation.

T1 sequence (P46937 whole entry): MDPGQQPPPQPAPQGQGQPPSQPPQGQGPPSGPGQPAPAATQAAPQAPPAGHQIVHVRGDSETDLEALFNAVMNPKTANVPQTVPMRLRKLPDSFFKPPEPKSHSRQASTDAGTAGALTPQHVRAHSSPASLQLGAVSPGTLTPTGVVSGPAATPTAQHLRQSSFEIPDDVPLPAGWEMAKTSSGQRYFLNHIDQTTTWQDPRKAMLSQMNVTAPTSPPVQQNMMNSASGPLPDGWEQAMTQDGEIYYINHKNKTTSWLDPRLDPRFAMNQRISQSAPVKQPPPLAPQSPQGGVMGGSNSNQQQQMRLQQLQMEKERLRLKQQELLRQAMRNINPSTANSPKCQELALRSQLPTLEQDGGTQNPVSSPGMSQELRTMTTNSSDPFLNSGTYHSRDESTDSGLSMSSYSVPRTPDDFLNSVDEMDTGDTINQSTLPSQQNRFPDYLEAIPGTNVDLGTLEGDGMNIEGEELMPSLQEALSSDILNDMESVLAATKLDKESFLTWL

Take `COc1ccc(-c2cc(-c3ccccc3)nc3c2CC(=O)Nc2ccccc2-3)cc1OC` [NSC682769]: in assay [1], the “Binding of TEAD1-4 to YAP” value is recorded as “inhibited the binding of the four TEAD members to YAP” and the “SMAD7, p73, FOS or TBXS association with YAP” value was “no appreciable effects”. Besides, in the assay with YAP [2], the TEAD levels result is “unaffected”. In addition, the YAP levels result at YAP [3] is listed as “decreased”.

Source of the values: patent US20240108634A1, “COMPOSITIONS AND METHODS FOR INHIBITING YAP” (The United States Government as represented by the …, priority 2021, published 2024).
